Literature values as cited in US20220168251A1, “PROCESS FOR PRODUCTION OF A NANO-MICROEMULSION SYSTEM OF FERULIC” (priority 2020, published 2022).

Test system: hypertensive rats
Details: 8 weeks of treatment

For COc1cc(/C=C/C(=O)O)ccc1O [ferulic acid, Ferulic acid], the “blood flow to kidney” value is listed as “improvement”, the “left ventricular stiffness in heart” value is listed as “decrease” and the systolic blood pressure is listed as “significant decrease”.
